According to ChEMBL document CHEMBL1201862, “PubChem BioAssay data set” (2004):
Calls of active or inactive are those of the source.

Tests used:
[1] = molecular target: Ras and Rab interactor 1/Tyrosine-protein kinase ABL1 (Homo sapiens, UniProt P00519+Q13671); format: functional;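 also: biochemical TR-FRET dose-response test measuring inhibition of binding between Rin1 and Abl proteins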
[2] = Vero cell cytotoxicity, cytotoxicity control for M. tuberculosis inhibitor project, purified and synthesized samples, set 3 (AID 504684); format: functional
[3] = miR-122 activators in hepatoma reporter cells, dose response, cell-based, Huh7 psiCHECK-miR122, Renilla luciferase, cherry-picked (AID 651956); format: functional;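 also: huh7 hepatoma cells stably carrying a psiCHECK-2 miR-122 sensor plasmid; renilla luciferase signal reporting endogenous miR-122 activity after 48 h compound exposure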
Interleukin-8 = molecular target: T1, Interleukin-8 (Homo sapiens, UniProt P10145); assay: Dose Response confirmation of uHTS small molecule hits for cystic fibrosis induced NFkb Inhibitors in a PAF-induced IL8 counterscreen.; format: functional; details: read-out: IC50_Mean
T1 sequence (P10145 whole entry): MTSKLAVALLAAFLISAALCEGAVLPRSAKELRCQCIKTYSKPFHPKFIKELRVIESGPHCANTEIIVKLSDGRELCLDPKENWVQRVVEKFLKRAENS

[4] = inhibitors of PGC1a acetylation in cells, dose response, cell-based, cherry-picked samples (AID 720514); format: functional;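 also: potency may reflect raised or lowered acetylation signal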
[5] = molecular target: T2, High affinity choline transporter 1 (Homo sapiens, UniProt Q9GZV3); assay: CHT inhibitors, dose response, cell-based, 5-point CRC, membrane potential dye (AID 504840); format: functional
T2 sequence (Q9GZV3 whole entry): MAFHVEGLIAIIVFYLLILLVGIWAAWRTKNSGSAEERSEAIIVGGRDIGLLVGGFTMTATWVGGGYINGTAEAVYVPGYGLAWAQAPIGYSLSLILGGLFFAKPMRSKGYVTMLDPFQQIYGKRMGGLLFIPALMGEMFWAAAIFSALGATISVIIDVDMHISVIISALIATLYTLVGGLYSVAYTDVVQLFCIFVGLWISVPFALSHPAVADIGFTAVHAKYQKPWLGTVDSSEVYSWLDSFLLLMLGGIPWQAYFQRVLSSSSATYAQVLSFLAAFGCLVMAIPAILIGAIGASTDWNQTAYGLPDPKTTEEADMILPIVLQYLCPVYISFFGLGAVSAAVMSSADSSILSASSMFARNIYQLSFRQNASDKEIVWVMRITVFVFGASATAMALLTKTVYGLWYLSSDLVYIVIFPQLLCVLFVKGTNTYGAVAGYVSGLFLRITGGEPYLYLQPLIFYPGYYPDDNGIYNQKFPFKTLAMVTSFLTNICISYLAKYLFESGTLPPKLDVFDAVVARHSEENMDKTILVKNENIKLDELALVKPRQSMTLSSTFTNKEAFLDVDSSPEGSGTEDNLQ

[6] = molecular target: T2, High affinity choline transporter 1; assay: CHT inhibitors, dose response, cell-based, 10-point CRC, membrane potential dye (AID 588401); format: functional;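 also: membrane potential dye fluorescence of choline-evoked depolarization via CHT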
[7] = NIH-3T3 fibroblast cytotoxicity, dose response, cytotoxicity control, cell-based, fluorescence, Alamar Blue, secondary assay (AID 2327); format: functional;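 also: NIH-3T3 mouse fibroblasts cultured with fluconazole at 8 µg/mL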
[8] = insulin promoter down-regulators in MIN6 cells, imaging, high-content screening, mouse beta cells (AID 1628); format: functional
[9] = tested on: Streptococcus sp. 'group A'; assay: growth inhibition of control SK(-) GAS strain, dose response, counter-screen for streptokinase expression inhibitor project, luminescence, kanamycin, BacTiterGlo, confirmation (AID 1900); format: functional, organism-based
[10] = cytotoxicity in MIN6 insulinoma cells, dose response, cytotoxicity control, cell-based, mouse insulinoma (AID 2122); format: functional;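 also: confirmatory high-throughput counterscreen run to flag cytotoxic compounds; mouse MIN-6 beta cells carrying an insulin promoter eGFP reporter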
[11] = C. albicans growth with fluconazole, confirmation, fluorescence, retest (AID 2467); format: functional, cell-based
[12] = molecular target: T3, Serine/threonine-protein phosphatase (Candida dubliniensis (strain CD36 / CBS 7987 / NCPF 3949 / NRRLY-17841) (Yeast), UniProt B9W6M3); assay: calcineurin pathway inhibitors in yeast reporter, dose response, S. cerevisiae, CDRE-lacZ, luminescence, secondary (AID 2388); format: functional, cell-based;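 also: yeast reporter cells carrying a calcineurin-responsive lacZ construct stimulated with calcium chloride; luminescent beta-galactosidase reporter signal in whole cells rather than isolated phosphatase activity; potency for inhibition where a drop in reporter signal means calcineurin blockade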
T3 sequence (B9W6M3 whole entry): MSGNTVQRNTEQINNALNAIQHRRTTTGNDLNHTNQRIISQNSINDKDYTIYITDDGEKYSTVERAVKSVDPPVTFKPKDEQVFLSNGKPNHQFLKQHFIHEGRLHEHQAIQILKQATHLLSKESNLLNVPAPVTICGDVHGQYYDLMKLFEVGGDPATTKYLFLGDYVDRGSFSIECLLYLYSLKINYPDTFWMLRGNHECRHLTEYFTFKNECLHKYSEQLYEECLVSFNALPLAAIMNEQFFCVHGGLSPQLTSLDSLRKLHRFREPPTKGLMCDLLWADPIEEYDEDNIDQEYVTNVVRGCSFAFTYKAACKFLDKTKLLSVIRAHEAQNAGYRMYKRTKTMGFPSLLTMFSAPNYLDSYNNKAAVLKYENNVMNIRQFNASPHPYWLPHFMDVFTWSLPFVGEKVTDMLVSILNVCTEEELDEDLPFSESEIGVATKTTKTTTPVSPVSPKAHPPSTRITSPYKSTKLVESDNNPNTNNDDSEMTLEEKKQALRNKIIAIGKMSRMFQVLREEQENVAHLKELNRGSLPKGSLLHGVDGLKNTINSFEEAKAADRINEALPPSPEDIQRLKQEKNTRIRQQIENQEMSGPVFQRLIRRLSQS

Streptococcus = assay: Group A Streptococcus viability loss, dose response, counter-screen for streptokinase expression inhibitor project, luminescence, BacTiterGlo (AID 1915); format: functional, organism-based;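 also: potency for reduction of bacterial viability or growth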
[13] = molecular target: ATP-dependent molecular chaperone HSP82 (Candida albicans (strain WO-1) (Yeast), UniProt C4YTQ8); assay: loss of DOC-induced GRE-beta-galactosidase reporter signal, dose response, Hsp90 inhibitor project, S. cerevisiae, luminescence (AID 2400); format: functional, cell-based;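 also: beta-galactosidase luminescence from glucocorticoid response element reporter as proxy for Hsp90 function; inhibitor potency where signal loss means Hsp90 inhibition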
Chain of ATP-dependent molecular chaperone HSP82 (C4YTQ8 whole entry): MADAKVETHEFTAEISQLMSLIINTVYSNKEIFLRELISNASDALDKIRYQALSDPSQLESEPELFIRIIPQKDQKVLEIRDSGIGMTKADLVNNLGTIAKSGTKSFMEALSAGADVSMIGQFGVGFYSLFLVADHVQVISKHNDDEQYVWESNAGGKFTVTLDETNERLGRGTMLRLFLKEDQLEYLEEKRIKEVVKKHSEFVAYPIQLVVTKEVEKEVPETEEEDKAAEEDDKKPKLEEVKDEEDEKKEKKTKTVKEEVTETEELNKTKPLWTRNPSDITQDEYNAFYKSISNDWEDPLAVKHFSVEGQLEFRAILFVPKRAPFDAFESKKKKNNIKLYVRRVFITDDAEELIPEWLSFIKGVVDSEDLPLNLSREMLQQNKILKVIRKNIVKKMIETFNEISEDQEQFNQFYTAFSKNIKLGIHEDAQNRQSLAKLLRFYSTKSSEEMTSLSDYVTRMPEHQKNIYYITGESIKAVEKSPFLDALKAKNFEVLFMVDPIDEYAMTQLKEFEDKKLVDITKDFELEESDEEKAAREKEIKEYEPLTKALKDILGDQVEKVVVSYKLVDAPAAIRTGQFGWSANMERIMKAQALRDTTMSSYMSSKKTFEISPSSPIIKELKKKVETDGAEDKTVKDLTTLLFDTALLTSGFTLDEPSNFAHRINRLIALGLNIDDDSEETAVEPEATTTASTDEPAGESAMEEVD

Paired box protein Pax-8 = Paired box protein Pax-8 (Homo sapiens, UniProt Q06710); assay: inhibitors of PAX8-driven TPO luciferase reporter, dose response, RMG-I cells, cherry-pick (AID 687027); format: functional, cell-based;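 also: luciferase reporter driven by Pax8 target thyroperoxidase promoter measured by SteadyGlo luminescence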
[14] = inhibitors of CMV-promoter luciferase reporter, dose response, counter-screen for Pax8 inhibitor project, cell-based, HEK293, luminescence, dry powder (AID 743020); format: functional
[15] = A549 cell cytotoxicity, dose response, cytotoxicity control, plate reader, cherry-pick, antagonist series (AID 743412); format: functional, cell-based
[16] = HepG2 cell cytotoxicity, dose response, cytotoxicity control, plate reader, cherry-pick, antagonist series (AID 743416); format: functional, cell-based
[17] = LGR2 antagonists, dose response, cell-based, HEK293, CRE-luciferase reporter, cherry pick, set 2 (AID 743343); format: functional;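 also: transfected cells were stimulated with diluted bursicon conditioned medium after compound addition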
[18] = MC4R antagonists, dose response, counter-screen for LGR2 antagonist project, cell-based, plate reader, cherry pick (AID 743444); format: functional;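 also: transfected HEK 293 cells stimulated with alpha-MSH peptide; potency of inhibitors of the alpha-MSH evoked signal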
[19] = HEK293 cell cytotoxicity, dose response, cytotoxicity control, plate reader, cherry-picked samples (AID 743446); format: functional, cell-based
Cysteine protease ATG4B = molecular target: T4, Cysteine protease ATG4B (Homo sapiens, UniProt Q9Y4P1); format: functional;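 also: Fluorescence-based dose-response confirmation assay measuring inhibition of ATG4B activity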
T4 sequence (Q9Y4P1 whole entry): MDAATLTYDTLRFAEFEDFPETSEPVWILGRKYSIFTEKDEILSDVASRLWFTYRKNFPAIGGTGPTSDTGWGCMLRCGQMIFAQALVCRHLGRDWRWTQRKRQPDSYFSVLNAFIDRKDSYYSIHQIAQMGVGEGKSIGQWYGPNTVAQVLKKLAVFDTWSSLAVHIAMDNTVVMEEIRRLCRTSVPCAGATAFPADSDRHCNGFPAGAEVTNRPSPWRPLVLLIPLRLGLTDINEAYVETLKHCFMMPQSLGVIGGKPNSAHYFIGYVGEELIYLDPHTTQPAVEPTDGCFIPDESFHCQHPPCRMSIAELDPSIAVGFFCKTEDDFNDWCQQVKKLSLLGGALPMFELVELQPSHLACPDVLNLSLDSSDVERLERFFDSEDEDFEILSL

Phospholipase A2 = Phospholipase A2 (Homo sapiens, UniProt P04054); format: functional;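 also: confirmatory dose-response counterscreen on phospholipase A2, testing hits that came from an ultra-high-throughput screen for ATG4B inhibitors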
Fatty acid synthase [20] = molecular target: T5, Fatty acid synthase (Homo sapiens, UniProt P49327); assay: FAS thioesterase domain inhibitors, dose response, biochemical, endpoint fluorescence intensity, uHTS hits (AID 624327); format: functional;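 also: fluorescence from hydrolysis of an O-methyl fluorescein acyl ester substrate by the enzyme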
T5 sequence (P49327 whole entry, the tested form may be a part): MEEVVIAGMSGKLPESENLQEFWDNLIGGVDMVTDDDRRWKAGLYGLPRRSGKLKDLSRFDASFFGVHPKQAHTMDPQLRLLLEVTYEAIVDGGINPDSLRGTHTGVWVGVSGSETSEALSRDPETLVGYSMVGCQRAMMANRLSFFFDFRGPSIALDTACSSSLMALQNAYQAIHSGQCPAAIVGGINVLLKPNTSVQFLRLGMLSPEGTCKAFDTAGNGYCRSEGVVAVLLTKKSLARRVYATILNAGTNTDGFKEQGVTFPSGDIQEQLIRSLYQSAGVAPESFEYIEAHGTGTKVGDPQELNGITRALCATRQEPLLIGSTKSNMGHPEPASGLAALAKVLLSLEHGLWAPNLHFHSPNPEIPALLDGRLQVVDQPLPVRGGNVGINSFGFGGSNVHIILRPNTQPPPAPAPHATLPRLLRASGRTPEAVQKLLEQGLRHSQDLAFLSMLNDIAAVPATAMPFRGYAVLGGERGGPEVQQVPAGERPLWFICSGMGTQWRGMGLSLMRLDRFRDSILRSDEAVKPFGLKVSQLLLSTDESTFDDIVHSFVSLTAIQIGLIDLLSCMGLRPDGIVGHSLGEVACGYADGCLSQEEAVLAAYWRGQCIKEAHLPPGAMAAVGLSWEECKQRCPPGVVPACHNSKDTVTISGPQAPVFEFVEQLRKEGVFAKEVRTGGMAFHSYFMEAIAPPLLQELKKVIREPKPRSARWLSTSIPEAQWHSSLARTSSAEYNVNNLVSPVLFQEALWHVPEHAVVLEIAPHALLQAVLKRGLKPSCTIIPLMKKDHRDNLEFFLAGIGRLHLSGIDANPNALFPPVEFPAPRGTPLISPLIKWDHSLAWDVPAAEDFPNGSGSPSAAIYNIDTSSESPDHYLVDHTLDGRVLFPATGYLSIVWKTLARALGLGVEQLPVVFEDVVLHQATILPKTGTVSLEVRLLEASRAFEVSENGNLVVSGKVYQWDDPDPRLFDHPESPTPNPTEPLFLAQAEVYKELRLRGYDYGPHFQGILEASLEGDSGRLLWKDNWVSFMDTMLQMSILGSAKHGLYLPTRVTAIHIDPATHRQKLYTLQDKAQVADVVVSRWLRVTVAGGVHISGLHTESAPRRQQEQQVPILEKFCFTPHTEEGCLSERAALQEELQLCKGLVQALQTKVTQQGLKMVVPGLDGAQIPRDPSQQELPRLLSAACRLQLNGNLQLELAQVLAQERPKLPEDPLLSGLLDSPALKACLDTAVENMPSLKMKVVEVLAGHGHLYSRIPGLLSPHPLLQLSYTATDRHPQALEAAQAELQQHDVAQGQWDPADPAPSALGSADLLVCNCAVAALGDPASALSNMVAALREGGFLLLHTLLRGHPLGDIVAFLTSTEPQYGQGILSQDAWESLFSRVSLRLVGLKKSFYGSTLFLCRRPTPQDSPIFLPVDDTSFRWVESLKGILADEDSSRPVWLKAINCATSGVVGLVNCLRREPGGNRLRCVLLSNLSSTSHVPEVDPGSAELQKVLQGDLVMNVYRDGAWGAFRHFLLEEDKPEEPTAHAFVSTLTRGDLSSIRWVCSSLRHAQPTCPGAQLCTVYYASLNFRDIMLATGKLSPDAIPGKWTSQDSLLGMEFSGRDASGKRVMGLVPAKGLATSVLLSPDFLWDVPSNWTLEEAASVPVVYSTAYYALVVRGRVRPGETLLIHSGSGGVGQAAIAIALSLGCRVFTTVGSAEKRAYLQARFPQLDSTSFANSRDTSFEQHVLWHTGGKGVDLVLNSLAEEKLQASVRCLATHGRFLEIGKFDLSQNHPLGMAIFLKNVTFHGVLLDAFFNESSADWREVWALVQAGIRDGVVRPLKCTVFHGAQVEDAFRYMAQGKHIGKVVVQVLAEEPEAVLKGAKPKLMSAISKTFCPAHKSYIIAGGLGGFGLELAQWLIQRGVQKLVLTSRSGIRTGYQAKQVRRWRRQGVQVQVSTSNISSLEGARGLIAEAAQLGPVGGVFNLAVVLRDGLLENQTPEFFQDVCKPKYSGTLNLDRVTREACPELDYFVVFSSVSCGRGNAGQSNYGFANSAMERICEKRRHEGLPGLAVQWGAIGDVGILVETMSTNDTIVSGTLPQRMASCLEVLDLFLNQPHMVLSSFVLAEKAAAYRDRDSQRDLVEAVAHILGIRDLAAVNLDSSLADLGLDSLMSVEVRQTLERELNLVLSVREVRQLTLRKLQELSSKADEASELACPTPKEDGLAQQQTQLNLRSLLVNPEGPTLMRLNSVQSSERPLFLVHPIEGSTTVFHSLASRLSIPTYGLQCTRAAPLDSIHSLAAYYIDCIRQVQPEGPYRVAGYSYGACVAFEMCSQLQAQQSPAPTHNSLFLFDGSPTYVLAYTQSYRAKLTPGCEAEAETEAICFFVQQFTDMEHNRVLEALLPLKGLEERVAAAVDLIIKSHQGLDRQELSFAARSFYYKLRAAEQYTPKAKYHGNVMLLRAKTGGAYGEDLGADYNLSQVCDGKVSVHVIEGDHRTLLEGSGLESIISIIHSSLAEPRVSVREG

Fatty acid synthase [21] = molecular target: T5, Fatty acid synthase; assay: FAS thioesterase domain inhibitors, dose response, biochemical, kinetic fluorescence intensity (AID 624326); format: functional;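 also: rate of fluorescence rise from hydrolysis of a fluorogenic O-methyl fluorescein ester substrate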

Chain of Ras and Rab interactor 1/Tyrosine-protein kinase ABL1 (P00519 whole entry): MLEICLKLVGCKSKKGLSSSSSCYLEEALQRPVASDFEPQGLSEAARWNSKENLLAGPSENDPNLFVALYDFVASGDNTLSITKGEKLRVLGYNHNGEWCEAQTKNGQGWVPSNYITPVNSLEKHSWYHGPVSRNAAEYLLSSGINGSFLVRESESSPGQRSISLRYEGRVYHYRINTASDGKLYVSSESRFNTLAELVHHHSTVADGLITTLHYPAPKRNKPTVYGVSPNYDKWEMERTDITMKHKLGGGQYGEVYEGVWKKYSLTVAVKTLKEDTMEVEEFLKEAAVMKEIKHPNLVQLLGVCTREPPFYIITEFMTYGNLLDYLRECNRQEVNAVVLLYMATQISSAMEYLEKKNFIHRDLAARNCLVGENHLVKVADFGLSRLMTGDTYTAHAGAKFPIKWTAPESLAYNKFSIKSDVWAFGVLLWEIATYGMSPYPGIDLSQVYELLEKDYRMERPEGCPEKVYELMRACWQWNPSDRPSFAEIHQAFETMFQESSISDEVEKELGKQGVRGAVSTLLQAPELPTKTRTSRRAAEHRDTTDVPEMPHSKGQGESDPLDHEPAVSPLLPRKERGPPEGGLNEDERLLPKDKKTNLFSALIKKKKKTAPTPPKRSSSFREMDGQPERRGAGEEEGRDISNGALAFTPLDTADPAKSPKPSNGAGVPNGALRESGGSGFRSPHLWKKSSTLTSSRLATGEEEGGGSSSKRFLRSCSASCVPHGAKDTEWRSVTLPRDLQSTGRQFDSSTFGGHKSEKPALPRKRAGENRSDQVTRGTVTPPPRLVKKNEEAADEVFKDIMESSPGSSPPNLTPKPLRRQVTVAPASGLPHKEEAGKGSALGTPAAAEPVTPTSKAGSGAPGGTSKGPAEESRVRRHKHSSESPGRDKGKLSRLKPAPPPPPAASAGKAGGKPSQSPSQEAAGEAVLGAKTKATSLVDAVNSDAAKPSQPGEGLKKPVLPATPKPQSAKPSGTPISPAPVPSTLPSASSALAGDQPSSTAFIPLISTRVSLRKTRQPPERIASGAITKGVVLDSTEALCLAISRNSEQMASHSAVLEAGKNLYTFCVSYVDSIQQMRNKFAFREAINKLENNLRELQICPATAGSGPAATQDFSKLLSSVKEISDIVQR
Chain of Ras and Rab interactor 1/Tyrosine-protein kinase ABL1 (Q13671 whole entry): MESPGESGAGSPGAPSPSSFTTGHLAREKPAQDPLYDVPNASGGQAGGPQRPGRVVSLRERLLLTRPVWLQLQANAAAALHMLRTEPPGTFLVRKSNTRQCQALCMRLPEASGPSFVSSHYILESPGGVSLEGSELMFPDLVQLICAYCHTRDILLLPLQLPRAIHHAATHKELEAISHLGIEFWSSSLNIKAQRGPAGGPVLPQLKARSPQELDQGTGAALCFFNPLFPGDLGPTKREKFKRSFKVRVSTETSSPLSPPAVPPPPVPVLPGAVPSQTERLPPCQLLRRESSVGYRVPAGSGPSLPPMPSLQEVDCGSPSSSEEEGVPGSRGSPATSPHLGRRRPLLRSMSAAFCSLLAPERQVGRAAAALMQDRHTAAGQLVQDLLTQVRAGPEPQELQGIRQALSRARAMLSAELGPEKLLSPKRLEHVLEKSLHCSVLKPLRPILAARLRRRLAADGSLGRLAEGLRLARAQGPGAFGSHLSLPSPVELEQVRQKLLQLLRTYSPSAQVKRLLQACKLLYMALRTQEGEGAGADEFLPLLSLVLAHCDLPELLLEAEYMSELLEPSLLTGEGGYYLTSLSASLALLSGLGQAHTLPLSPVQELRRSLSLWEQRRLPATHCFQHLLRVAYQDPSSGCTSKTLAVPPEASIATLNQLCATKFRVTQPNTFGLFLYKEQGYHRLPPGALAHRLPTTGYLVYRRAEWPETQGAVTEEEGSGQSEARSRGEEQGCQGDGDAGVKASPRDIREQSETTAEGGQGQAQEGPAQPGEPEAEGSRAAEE

**Q.** Which IC50 [1] does the source give for Cc1ccc(C2N(c3cccc(Cl)c3)C(=O)N3CCCN23)cc1 (configuration not stated) here?
**A.** The IC50 was 11.1 µM (inactive).

**Q.** For Cc1ccc(NC(=O)C2C3/C=C\CCCCC32)cc1C (configuration not stated), which CC50 [2] is on record?
**A.** Its CC50 is > 100 µM (active).

**Q.** Which AC50 [3] does the source give for COc1ccc(C#Cc2ccc3c(c2)O[C@H](CN(C)C(=O)CN2CCOCC2)[C@H](C)CN([C@H](C)CO)S3(=O)=O)cc1 here?
**A.** Its AC50 is 12.3 µM (active).

**Q.** Which results are given for Nc1ncnc(NCc2ccc(F)cc2)c1[N+](=O)[O-]?
**A.** IC50 (Interleukin-8): > 79 µM (inactive); AC50 [4]: 3.1 µM (active)

**Q.** With Cc1ccc2c(c1)[C@@H]1CN(C)CC[C@@H]1N2C(=O)Nc1cccc(C(F)(F)F)c1 as the compound, how does the IC50 [5] read?
**A.** The IC50 was 8.23 µM (active).

**Q.** What about the IC50 [6] of the same compound?
**A.** The IC50 was 6.31 µM (active).

**Q.** Which EC50 [7] does the source give for CC1(C)COCN1S(=O)(=O)c1ccc(C(=O)Nc2nnc(-c3ccc(Cl)s3)o2)cc1 here?
**A.** The EC50 was 68.5 µM (active).

**Q.** And the IC50 [8]?
**A.** The IC50 was 3.39 µM (active).

**Q.** What about the EC50 [9] of the same compound?
**A.** Its EC50 is 0.691 µM (active).

**Q.** What about the IC50 [10] of the same compound?
**A.** Its IC50 is 3.33 µM (active).

**Q.** What about the EC50 [11] of the same compound?
**A.** Its EC50 is 0.308 µM (active).

**Q.** And the EC50 [12]?
**A.** Its EC50 is > 180 µM (inactive).

**Q.** What about the EC50 (Streptococcus) of the same compound?
**A.** The EC50 was 0.841 µM (active).

**Q.** And the IC50 [5]?
**A.** The IC50 was 13.8 µM (active).

**Q.** What about the EC50 [13] of the same compound?
**A.** The EC50 was 22.2 µM (active).

**Q.** With O=C(C[C@H]1C[C@@H]2c3cc(NS(=O)(=O)c4ccc(F)cc4)ccc3O[C@@H]2[C@@H](CO)O1)NCc1ccc(Oc2ccccc2)cc1 as the compound, how does the AC50 (Paired box protein Pax-8) read?
**A.** The AC50 was 8.32 µM (active).

**Q.** And the AC50 [14]?
**A.** Its AC50 is 40.6 µM (active).

**Q.** What about the AC50 [15] of the same compound?
**A.** The AC50 was 19.3 µM (active).

**Q.** And the AC50 [16]?
**A.** The AC50 was 20.9 µM (active).

**Q.** What about the AC50 [17] of the same compound?
**A.** Its AC50 is 26 µM (active).

**Q.** What about the AC50 [18] of the same compound?
**A.** Its AC50 is 25.6 µM (active).

**Q.** And the AC50 [19]?
**A.** The AC50 was 22.3 µM (active).

**Q.** Which IC50 (Cysteine protease ATG4B) does the source give for COc1cc(C(=O)N/N=C/c2coc3ccc(Cl)cc3c2=O)ccc1O here?
**A.** The IC50 was 3.35 µM (active).

**Q.** What about the IC50 (Phospholipase A2) of the same compound?
**A.** The IC50 was 16.2 µM (active).

**Q.** What about the IC50 (Fatty acid synthase [20]) of the same compound?
**A.** Its IC50 is 18.5 µM (active).

**Q.** What about the IC50 (Fatty acid synthase [21]) of the same compound?
**A.** Its IC50 is 7.45 µM (active).
